Laboratory results reported in US6492381B1, “Tricyclic carbamate compounds useful for inhibition of G-protein function and for treatment of proliferative diseases” (Schering Corp., priority 1993, dated 2002).

How the values were obtained:
[1] = target: T1, geranylgeranyl protein transferase (GGPT) I (Rattus norvegicus, UniProt P53610+Q04631); experiment: In vitro enzyme assay: inhibition of geranylgeranyl protein transferase I; assay type: biochemical
T1 construct: were partially purified from rat brain by ammonium sulfate fractionation followed by Q-Sepharose; from tissue; host or cells: rat brain
Excerpt: 1. In vitro enzyme assays: Inhibition of farnesyl protein transferase and geranylgeranyl protein transferase.
Both farnesyl protein transferase (FPT) and geranylgeranyl protein transferase (GGPT) I were partially purified from rat brain by ammonium sulfate fractionation followed by Q-Sepharose (Pharmacia, Inc.) anion exchange chromatography essentially as described by Yokoyama et al (Yokoyama, K., et al., (1991). A protein geranylgeranyltransferase from bovine brain: Implications for protein prenylation specificity, Proc. Natl. Acad. Sci USA 88: 5302-5306, the disclosure of which is incorporated herein by reference thereto). Human farnesyl protein transferase was also expressed in E. coli, using cDNA clones encoding both the α and β subunits. The methods used were similar to those published (Omer, C. et al., (1993), Characterization of recombinant human farnesyl protein transferase: Cloning, expression, farnesyl diphosphate binding, and functional homology with yeast prenyl-protein transferase, Biochemistry 32:5167-5176). Human farnesyl protein transferase was partially-purified from the soluble protein fraction of E. coli as described above. the tricyclic farnesyl protein transferase inhibitors disclosed herein inhibited both human and rat enzyme with similar potencies. Two forms of val^12-Ha-Ras protein were prepared as substrates for these enzymes, differing in their carboxy terminal sequence. One form terminated in cysteine-valine-leucine-serine (Ras-CVLS) the other in cystein-valine-leucine-leucine (Ras-CVLL). Ras-CVLS is a substrate for the farnesyl protein transferase while Ras-CVLL is a substrate for geranylgeranyl protein transferase I. The cDNAs encoding these proteins were constructed so that the proteins contain an amino-terminal extension of 6 histidine residues. Both proteins were expressed in Escherichia coli and purified using metal chelate affinity chromatography. The radiolabelled isoprenyl pyrophosphate substrates, [^3H]farnesyl pyrophosphate and [^3H]geranylgeranyl pyrophosphate, were purchased from DuPont/New England Nuclear.
The geranylgeranyl protein transferase I assay was essentially identical to the farnesyl protein transferase assay described above, with two exceptions: [^3H]geranylgeranylpyrophosphate replaced farnesyl pyrophosphate as the isoprenoid donor and Ras-CVLL was the protein acceptor. This is similar to the assay reported by Casey et al (Casey, P. J., et al., (1991), Enzymatic modification of proteins with a geranylgeranyl isoprenoid, Proc. Natl. Acad. Sci, USA 88: 8631-8635, the disclosure of which is incorporated herein by reference thereto).

[2] = test system: Ras-CVLS processing in COS monkey kidney cells; experiment: Cell-based assay: Ras-CVLS processing in transfected COS cells (immunoblot); conditions: Primates; inhibition of Ras-CVLS processing in Ras-transfected COS cells
Excerpt: 2. Cell-Based Assay: Transient expression of val^12-Ha-Ras-CVLS and val^12-Ha-Ras-CVLL in COS monkey kidney cells: Effect of farnesyl protein transferase inhibitors on Ras processing and on disordered cell growth induced by transforming Ras.
COS monkey kidney cells were transfected by electroporation with the plasmid pSV-SPORT (Gibco/BRL) containing a cDNA insert encoding either Ras-CVLS or Ras-CVLL, leading to transient overexpression of a Ras substrate for either farnesyl protein transferase or geranylgeranyl protein transferase I, respectively (see above).
Following electroporation, cells were plated into 6-well tissue culture dishes containing 1.5 ml of Dulbecco's-modified Eagle's media (GIBCO, Inc.) supplemented with 10% fetal calf serum and the appropriate farnesyl protein transferase inhibitors. After 24 hours, media was removed and fresh media containing the appropriate drugs was re-added.
48 hours after electroporation cells were examined under the microscope to monitor disordered cell growth induced by transforming Ras. Cells expressing transforming Ras become more rounded and refractile and overgrow the monolayer, reminiscent of the transformed phenotype. Cells were then photographed, washed twice with 1 ml of cold phosphate-buffered saline (PBS) and removed from the dish by scraping with a rubber policeman into 1 ml of a buffer containing 25 mM Tris, pH 8.0; 1 mM ethylenediamine tetraacetic acid; 1 mM phenylmethylsulfonyl fluoride; 50 μM leupeptin; and 0.1 μM pepstatin. Cells were lysed by homogenization and cell debris was removed by centrifugation at 2000×g for 10 min.
Cellular protein was precipitated by addition of ice-cold trichloroacetic acid and redissolved in 100 μl of SDS-electrophoresis sample buffer. Samples (5-10 μl) were loaded onto 14% polyacrylamide minigels (Novex, Inc.) and electrophoresed until the tracking dye neared the bottom of the gel. Proteins resolved on the gels were electroblotted onto nitrocellulose membranes for immunodetection.
Membranes were blocked by incubation overnight at 4° C. in PBS containing 2.5% dried milk and 0.5% Tween-20 and then incubated with a Ras-specific monoclonal antibody, Y13-259 (Furth, M. E., et al., (1982), Monoclonal antibodies to the p21 products of the transforming gene of Harvey murine sarcome virus and of the cellular ras gene family, J. Virol. 43: 294-304), in PBS containing 1% fetal calf serum for one hour at room temperature. After washing, membranes were incubated for one hour at room temperature with a 1:5000 dilution of secondary antibody, rabbit anti-rat IgG conjugated to horseradish peroxidase, in PBS containing 1% fetal calf serum. The presence of processed and unprocessed Ras-CVLS or Ras-CVLL was detected using a calorimetric peroxidase reagent (4-chloro-1-naphthol) as described by the manufacturer (Bio-Rad).

CCOC(=O)N1CCC(C2(F)c3ccc(Cl)cc3CCc3cccnc32)CC1 (stereo not drawn) [Compound 530.00]
selective for FPT inhibition (versus GGPT) ([1]; FPT versus GGPT): at least 13 fold | activity against GGPT ([1]; at 49 μM): inactive | IC50 [2]: 15.4 µM
